From patent US20210380547A1, “UREA DERIVATIVES FOR TREATING AND/OR PREVENTING CANCER” (CENTRE NATIONAL DE LA RECHERCHE SCIENTIFIQUE, priority 2018, published 2021)
“Also recorded” adds a separate entry of the source.

What was measured:
786-O = experiment: XTT cell viability assay, 786-O; type: cell-based, human
Method: A, B: Naive (786-O, A), and sunitinib-resistant (786-R, B) 786-O cells, were treated with compound #1 or sunitinib (1 to 10 μM) for 48 hr. Cell viability was measured by XTT assays;
D, E: 786-O (D), 786-R (E), were treated with 2.5 μM compound #1 or 2.5 μM sunitinib for 24 h to 96 h. The cells metabolism was measured by XTT assay;
Fifty microliters of sodium 3′-[1-phenylaminocarbonyl)-3,4-tetrazolium]-bis(4-methoxy-6-nitro) benzene sulfonic acid hydrate (XTT) reagent was added to each well. The assay is based on the cleavage of the yellow tetrazolium salt XTT to form an orange formazan dye by metabolically active cells. The absorbance of the formazan product, reflecting cell viability, was measured at 490 nm. Each assay was performed in quadruplicate.
Compounds #1-#14 have been assayed as potential anti-proliferative agents against a panel of human breast head and neck, and kidney tumor cells and hematological malignancies, selected on the basis of their aggressiveness (e.g. incurable triple-negative breast cancer cells: MDA-MB-231; kidney ccRCC cells: RCC4, A498 and 786-O and 786R; head and neck cancer cells: CAL33, CAL33RR, CAL27, and CAL27RR; acute myeloid cell lines: OCI-AML2, OCI-AML3, MolM13, and MolM14; myelodysplastic cell line: SM1; and chronic myeloid cell line: CML). All these cell lines share as common denominator the expression of CXCR1 and CXCR2. The EC50 values have been measured by a XTT colorimetric assay, and compared to those of SB-225002, used as a reference; the results are listed in Table 1.

[1] = system: malignant (ccRCC and hematological) cells; experiment: FACS analysis of cell death markers (AV, PI), malignant cells; type: cell-based, human; details: 5 μM, 48 h
Method: FIG. 1: Observation by FACS analyses of early (Annexin AV) and late (Propidium Iodide, PI) apoptosis markers expressed by healthy and malignant cells after treatment with compounds #1 and #2 at 5 μM. CT: negative control.
Apoptosis analysis: After stimulation, cells were washed with ice-cold PBS and were stained with the annexin-V-fluos staining kit (Roche, Meylan, France) according to the manufacturer's procedure. Fluorescence was measured by using the FL2 (AV) and FL3 (propidium iodide, PI) channels of a fluorescence-activated cell sorter apparatus (Calibur cytometer).
To complete these XTT assays, malignant (ccRCC and hematological) and healthy (human fibroblasts FHN) cells have been grown with compounds #1 or #2, and after 48h the expression of cell death markers (AV and PI) has been quantified by FACS analyses (FIG. 1).

CXCR2 = target: T1, CXCR2 (Homo sapiens, UniProt P25025); experiment: CXCR2 membrane level by flow cytometry after CXCL8 stimulation in HuVEC; type: cell-based; details: 2.5 μM, CXCL8 25 ng/ml 1 h
T1 construct: endogenous in cells; host or cells: HuVEC (healthy endothelial cells)
T1 sequence (P25025 whole entry): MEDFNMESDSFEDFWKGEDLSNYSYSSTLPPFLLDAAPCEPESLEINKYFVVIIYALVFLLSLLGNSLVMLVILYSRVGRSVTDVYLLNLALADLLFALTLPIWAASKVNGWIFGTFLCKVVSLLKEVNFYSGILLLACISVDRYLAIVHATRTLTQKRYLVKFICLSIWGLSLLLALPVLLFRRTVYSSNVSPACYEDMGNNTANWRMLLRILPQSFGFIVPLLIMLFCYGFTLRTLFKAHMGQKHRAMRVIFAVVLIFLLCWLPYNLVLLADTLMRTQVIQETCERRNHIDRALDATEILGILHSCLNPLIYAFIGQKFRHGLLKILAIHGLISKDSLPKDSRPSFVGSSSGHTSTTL
Method: A: HuVEC were stimulated with 25 ng/ml CXCL8 during 1 h. Membrane-associated CXCR2 protein levels were quantified by flow cytometry;
CXCR2 measurement: After stimulation, cells were washed with PBS and were stained with the CXCR2-PE antibody (Miltenyi) for 30 min at room temperature. Fluorescence was measured by using the FL2 (PE) channels of a fluorescence-activated cell sorter apparatus (Calibur cytometer).
Since CXCR2 is internalized in endothelial cells when activated by CXCL-8, the effect of compound #1 has been investigated on CXCR2 recycling on HuVEC cells.

[2] = system: CXCL7-dependent HuVEC migration; experiment: Boyden chamber migration assay, CXCL7-dependent; type: cell-based; details: CXCL7 (50 ng/ml), 24 hr
Method: (§1) CXCL7 or VEGFA-stimulated chemotaxis assays were monitored using modified Boyden chambers containing polycarbonate membranes (8-μm pores, Transwell; Corning, Sigma). Cells were seeded on the upper side of the filters and chambers were placed on 24-well plates containing CXCL7 (50 ng/ml) or VEGFA (50 ng/ml). Cells were allowed to migrate for 24 hr at 37° C. in 5% CO2. Migratory cells on the lower membrane surface were fixed in 3% paraformaldehyde, stained with 0.1% crystal violet.

[3] = system: VEGFA-dependent HuVEC migration; experiment: Boyden chamber migration assay, VEGFA-dependent; type: cell-based; details: VEGFA (50 ng/ml), same concentration
Method: as §1

[4] = Stability in cellulo by UPLC/HRMS on 786-O cell line; type: in vitro ADME; details: 24h treatment at room temperature
Source text: The stability of compound #1 was first assayed through UPLC/HRMS analyses in cellulo on the 786-O cell line.

A498 cells = experiment: Tumor xenograft experiment (ectopic model of RCC); type: in vivo, mice
Method: Cells were lysed in buffer containing 3% SDS, 10% glycerol and 0.825 mM Na2HPO4. 30 to 50 μg of proteins were separated on 10% SDS-PAGE, transferred onto a PVDF membrane (Immobilon, Millipore, France) and then exposed to the appropriate antibodies. Proteins were visualized with the ECL system using horseradish peroxidase-conjugated anti-rabbit or anti-mouse secondary antibodies.
One microgram of total RNA was used for the reverse transcription, using the QuantiTect Reverse Transcription kit (QIAGEN, Hilden, Germany), with a blend of oligo (dT) and random primers to prime first-strand synthesis. SYBR master mix plus (Eurogentec, Liege, Belgium) was used for qPCR. The mRNA level was normalized to 36B4 mRNA.
Ectopic model of RCC: seven million A498 cells were injected subcutaneously into the flank of 5-week-old nude (nu/nu) female mice (Janvier, France). The tumor volume was determined with a caliper (v=L*1^2*0.5). When the tumor reached 100 mm^3, mice were treated five a week for 4 weeks, by gavage with placebo (dextrose water vehicle) or compound #1 (50 mg/kg). This study was carried out in strict accordance with the recommendations in the Guide for the Care and Use of Laboratory Animals. Our experiments were approved by the “Comite national institutionnel d′éthique pour l'animal de laboratoire (CIEPAL)”
Sections from blocks of formol-fixed and paraffin-embedded tumors were examined for immunostaining. Sections were incubated with monoclonal anti-Ki67 (clone MIB1, DAKO, Ready to use) antibodies. Biotinylated secondary antibody (DAKO) was applied and binding was detected with the substrate diaminobenzidine against a hematoxylin counterstain.
Mice were xenografted with the highly aggressive ccRCC cells (A498), which form highly vascularized tumors.

For `O=C(Nc1cccc(Cl)c1)Nc1nc2ccc([N+](=O)[O-])cc2s1` [Compound #1, 1-(3-chlorophenyl)-3-(6-nitrobenzo[d]thiazol-2-yl)urea], the “time of treatment to total inhibition of proliferation” value (786-O; 786-O cells, 2.5 μM, XTT 24 h to 96 h) was “approximately 65 hours”, the EC50 (786-O; Homo sapiens, 786-0, XTT assay (48 h), standard deviation of 10%, read-out: EC50 (μM) Kidney 786-O) was 2 µM and the “early (AV) and late (PI) apoptosis markers on malignant cells” value [1] was “cytotoxic effect on malignant cells; also recorded: more efficient than compound #2”. For the same compound, the “CXCL-8-dependent internalization of CXCR2” value (CXCR2) was “prevents the CXCL-8-dependent internalization of CXCR2”, the “decrease of HuVECs motility” value [2] was “more than 50%” and the “activity on VEGFA-stimulated HuVEC motility” value [3] was “does not exert any visible activity”. The “degradation (stability in cellulo)” value [4] was “No degradation”, the “reduction of the tumor weight” value (A498 cells; A498 xenograft, 50 mg/kg gavage, end of experiment) was “more than 35%” and the “reduction of tumor volume” value (A498 cells; A498 xenograft, 50 mg/kg gavage, end of experiment (day 70)) was “more than 65%”. The “mRNA level of CXCL5 in tumors” value (A498 cells; human, qPCR) was “significantly decreased”, the “mRNA level of CXCL7 in tumors” value (A498 cells; human, qPCR) was “significantly decreased” and the “mRNA level of CXCL8 in tumors” value (A498 cells; human, qPCR) was “significantly decreased”. The “mRNA level of VEGFA in tumors” value (A498 cells; human, qPCR) was “not those of VEGFA”, the “AKT phosphorylation in tumor lysates” value (A498 cells; immunoblotting) was “inhibits AKT” and the “ERK phosphorylation in tumor lysates” value (A498 cells; immunoblotting) was “not ERK”. The “weight of the animals” value (A498 cells; treated group, day 70) was “No weight loss”, the “labelling of the proliferation marker Ki-67” value (A498 cells; tumor immunostaining) was “significantly decreases” and the “lowering of mRNA levels of murine CD31” value (A498 cells; tumors, qPCR) was “more than 75%”.
